Results as given in US20260158056A1, “USE OF LOW MOLECULAR WEIGHT HYALURONIC ACID FOR THE TREATMENT OF LUNG MUCOSAL INFLAMMATION” (INSTITUT NATIONAL DE LA SANTÉ ET DE LA RECHERCHE MÉDICALE, priority 2021, published 2026).

Legend:
Assay type in all cases: cell-based
[1] = tested on: IL-8 secreted by F508del/F508del CF human airway epithelial cells; experiment: IL-8 ELISA, CF airway epithelial cell monolayers, Cytomix 24 h then Cytomix + treatment 24 h (curative); settings: FIG. 2, 5; curative: Cytomix 24 h, then Cytomix + HA 1 mg/mL or Dexa 10^-6M 24 h; n=7 CF patients
Protocol: FIG. 2: Measurement by ELISA assay of the pro-inflammatory chemokine IL-8 secreted by F508del/F508del CF human airway epithelial cells cultured as monolayers. Airway epithelial cells were seeded in 48-wells plates and cultured until confluence was reached. Cells were then treated for 24 h with a pro-inflammatory chemokine cocktail (TNFα, IL1β and IFNγ; 10 ng/mL each) called Cytomix (Cy). Cells were thereafter treated with a combo containing Cytomix and the anti-inflammatory dexamethasone (Dexa; 10^-6M), or 15-45 kDa sodium-hyaluronic acid (HA-Na 15-45 kDa) (ARD—Pomacle—France—as prepared according to WO2004050187), 15-30 kDa sodium-hyaluronic acid (HA-Na 15-30 kDa) (Sigma Aldrich), or 30-50 kDa sodium-hyaluronic acid (HA-Na 30-50 kDa) (Sigma Aldrich) at 1 mg/mL during the following 24 h. The culture medium was finally collected and the IL-8 content was determined by ELISA assay. n=7 different F508del/F508del CF patients. p<0.001 (***); p<0.01 (**); p<0.05 (*).ns: non-significant.
FIG. 5: Measurement by ELISA assay of the pro-inflammatory chemokine IL-8 secreted by F508del/F508del CF human airway epithelial cells cultured as monolayers. Airway epithelial cells were seeded in 48-wells plates and cultured until confluence was reached. Cells were then treated for 24 h with a pro-inflammatory chemokine cocktail (TNFα, IL1β and IFNγ; 10 ng/ml each) called Cytomix (Cy). Cells were thereafter treated with a combo containing Cytomix and the anti-inflammatory dexamethasone (Dexa; 10^-6M), or 15-45 kDa sodium-hyaluronic acid (HA-Na 15-45 kDa) (ARD—Pomacle—France—as prepared according to WO2004050187), 15-45 kDa calcium-hyaluronic acid (HA-Ca 15-45 kDa; ARD), or 15-45 kDa potassium-hyaluronic acid (HA-K 15-45 kDa; ARD) at 1 mg/mL during the following 24 h. The culture medium was finally collected and the IL-8 content was determined. n=7 different F508del/F508del CF patients. p<0.001 (***); p<0.01 (**); p<0.05 (*). ns: non-significant.

[2] = tested on: IL-8 secreted by F508del/F508del CF human airway epithelial cells; experiment: IL-8 ELISA, CF airway epithelial cell monolayers, Cytomix + treatment 24 h (co-treatment); settings: FIG. 3, 6; co-treatment: Cytomix + HA 1 mg/mL or Dexa 10^-6M 24 h; n=7 CF patients
Protocol: (§1) FIG. 3: Measurement by ELISA assay of the pro-inflammatory chemokine IL-8 secreted by F508del/F508del CF human airway epithelial cells cultured as monolayers. Airway epithelial cells were seeded in 48-wells plates and cultured until confluence was reached. Cells were then treated for 24 h with a combo containing a pro-inflammatory chemokine cocktail (TNFα, IL1β and IFNγ; 10 ng/mL each) called Cytomix (Cy) and the anti-inflammatory dexamethasone (Dexa; 10^-6M), 15-45 kDa sodium-hyaluronic acid (HA-Na 15-45 kDa) (ARD—Pomacle—France—as prepared according to WO2004050187), 15-30 kDa sodium-hyaluronic acid (HA-Na 15-30 kDa) (Sigma Aldrich), or 30-50 kDa sodium-hyaluronic acid (HA-Na 30-50 kDa) (Sigma Aldrich) at 1 mg/mL. The culture medium was then collected and the IL-8 content was determined. n=7 F508del/F508del CF patient. p<0.001 (***); p<0.01 (**); p<0.05 (*). ns: non-significant.
FIG. 6: Measurement by ELISA assay of the pro-inflammatory chemokine IL-8 secreted by F508del/F508del CF human airway epithelial cells cultured as monolayers. Airway epithelial cells were seeded in 48-wells plates and cultured until confluence was reached. Cells were then treated for 24 h with a combo containing a pro-inflammatory chemokine cocktail (TNFα, IL1β and IFNγ 10 ng/mL each) called Cytomix (Cy) and the anti-inflammatory dexamethasone (Dexa; 10^-6M), or 15-45 kDa sodium-hyaluronic acid (HA-Na 15-45 kDa) (ARD—Pomacle—France—as prepared according to WO2004050187), 15-45 kDa calcium-hyaluronic acid (HA-Ca 15-45 kDa; ARD), or 15-45 kDa potassium-hyaluronic acid (HA-K 15-45 kDa; ARD) at 1 mg/mL. The culture medium was then collected and the IL-8 content was determined. n=7 different F508del/F508del CF patients. p<0.001 (***); p<0.01 (**); p<0.05 (*). ns: non-significant.

[3] = tested on: IL-8 secreted by human COPD airway epithelial cells; experiment: IL-8 ELISA, COPD airway epithelial cell monolayers, Cytomix + treatment 24 h (co-treatment); settings: FIG. 18, 20; co-treatment: Cytomix + HA 1 mg/mL or Dexa 10^-6M 24 h; n=5 COPD patients
Protocol: as §1, with “18:” for “3:”, “by” for “by F508del/F508del CF”, “human COPD” for “human”, “IFNγ” for “IFNγ;”, “n=5 COPD” for “n=7 F508del/F508del CF”
FIG. 20: Measurement by ELISA assay of the pro-inflammatory chemokine IL-8 secreted by human COPD airway epithelial cells cultured as monolayers. Airway epithelial cells were seeded in 48-wells plates and cultured until confluence was reached. Cells were then treated for 24 h with a combo containing a pro-inflammatory chemokine cocktail (TNFα, IL1β and IFNγ 10 ng/ml each) called Cytomix (Cy) and the anti-inflammatory dexamethasone (Dexa; 10^-6M), 15-45 kDa sodium-hyaluronic acid (HA-Na 15-45 kDa) (ARD—Pomacle—France—as prepared according to WO2004050187), 15-45 kDa calcium-hyaluronic acid (HA-Ca 15-45 kDa; ARD), or 15-45 kDa potassium hyaluronic acid (HA-K 15-45 kDa; ARD) at 1 mg/mL. The culture medium was then collected and the IL-8 content was determined. n=5 different COPD patients. p<0.001 (***); p<0.01 (**); p<0.05 (*). ns: non-significant.

Molecule | decrease in IL-8 secretion [1] [%] | decrease in IL-8 secretion [2] [%] | decrease in IL-8 secretion [3] [%]
15-30 kDa sodium-hyaluronic acid [HA-Na 15-30 kDa] | 44.2 | 40.2 | 43.1
15-45 kDa calcium-hyaluronic acid [HA-Ca 15-45 kDa] | 33.6 | 11.6 | 12.9
15-45 kDa potassium-hyaluronic acid [HA-K 15-45 kDa] | 47.5 | 30 | 27.5
15-45 kDa sodium-hyaluronic acid [HA-Na 15-45 kDa] | 32.1 | 33.9 | 33.4
30-50 kDa sodium-hyaluronic acid [HA-Na 30-50 kDa] | 42.2 | 30.1 | 30.8
C[C@@H]1C[C@H]2[C@@H]3CCC4=CC(=O)C=C[C@]4(C)[C@@]3(F)[C@@H](O)C[C@]2(C)[C@@]1(O)C(=O)CO [Dexamethasone, dexamethasone, reference compound] | 30.9 | 21.4 | 32.1
